In patent publication US8853174B2, “Agent for preventing or ameliorating skin aging” (Kao Corporation, priority 2008, dated 2014):

System: Human skin fibroblasts
Assay: Measurement of contraction force generated by cells (fibroblast-embedded collagen gel culture system)
Assay type: cell-based
Conditions: for enhancement in the contraction force generated by fibroblasts (in words): 3 μM; for Mean value of contraction force generated by cells: Test Example 1, human skin fibroblasts in collagen gel, final concentration 3 μM

Compound	enhancement in the contraction force generated by fibroblasts (in words)	Mean value of contraction force generated by cells
C/C=C(/C)C(=O)O[C@H]1[C@H](OC(C)=O)[C@]2(CO)[C@H](O)C[C@]3(C)C(=CC[C@@H]4[C@@]5(C)CC[C@H](O[C@@H]6O[C@H](C(=O)O)[C@@H](O[C@@H]7O[C@H](CO)[C@@H](O)[C@H](O)[C@H]7O)[C@H](O)[C@H]6O[C@@H]6O[C@H](CO)[C@@H](O)[C@H](O)[C@H]6O)[C@](C)(CO)[C@@H]5CC[C@]43C)[C@@H]2CC1(C)C [Escin Ib]	no enhancement	0.0 dyne
C/C=C(\C)C(=O)O[C@H]1[C@H](OC(C)=O)[C@]2(CO)[C@H](O)C[C@]3(C)C(=CC[C@@H]4[C@@]5(C)CC[C@H](O[C@@H]6O[C@H](C(=O)O)[C@@H](O[C@@H]7O[C@H](CO)[C@@H](O)[C@H](O)[C@H]7O)[C@H](O)[C@H]6O[C@@H]6O[C@H](CO)[C@@H](O)[C@H](O)[C@H]6O)[C@](C)(CO)[C@@H]5CC[C@]43C)[C@@H]2CC1(C)C [Escin Ia]	no enhancement	0.0 dyne
